Test results as given in PubChem BioAssay AID1259411 (Chemical Carcinogenesis Research Information System (CCRIS), 2018).
Activity calls are given as the source filed them. The rule behind the calls is not given here.

Tested on: rodent carcinogenicity bioassays, tumor incidence
Assay: CCRIS carcinogenicity studies
Settings: Dose: 0, Dose: 0
In short: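 NCI-built, expert-reviewed records of carcinogenicity and related test outcomes (mutagenicity, tumor promotion/inhibition) compiled from published and report sources, historical span 1985-2011, not updated.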

Clc1nc(Cl)nc(Nc2ccccc2Cl)n1
carcinogen call (Species: MOUSE, Strain/Sex: B6C3F1/FEMALE, Route: ORAL, 500, 1000 PPM IN DIET, 500, 1000 PPM IN DIET): inactive; negative
carcinogen call (Species: MOUSE, Strain/Sex: B6C3F1/MALE, Route: ORAL, 500, 1000 PPM IN DIET, 500, 1000 PPM IN DIET): inactive; negative
carcinogen call (Species: Mouse, Strain/Sex: CD-1/Female, Route: Oral, 50, 250, 1250 ppm in feed for 2 yrs, 50, 250, 1250 ppm in feed for 2 yrs): inactive; negative; purity 93.5%
carcinogen call (Species: Mouse, Strain/Sex: CD-1/Male, Route: Oral, 50, 250, 1250 ppm in feed for 2 yrs, 50, 250, 1250 ppm in feed for 2 yrs): inactive; negative; purity 93.5%
carcinogen call (Species: RAT, Strain/Sex: F344/FEMALE, Route: ORAL, 500, 1000 PPM IN DIET, 500, 1000 PPM IN DIET): inactive; negative
carcinogen call (Species: RAT, Strain/Sex: F344/MALE, Route: ORAL, 500, 1000 PPM IN DIET, 500, 1000 PPM IN DIET): inactive; negative
carcinogen call (Species: Rat, Strain/Sex: Sprague Dawley/Female, Route: Oral, 50, 330, 2000 ppm in feed for 104 wks, 50, 330, 2000 ppm in feed for 104 wks): inactive; negative; purity 93.5%
carcinogen call (Species: Rat, Strain/Sex: Sprague Dawley/Male, Route: Oral, 50, 330, 2000 ppm in feed for 104 wks, 50, 330, 2000 ppm in feed for 104 wks): inactive; negative; purity 93.5%

Cc1ccc(S(=O)(=O)Oc2ccc(N=Nc3ccc(-c4ccc(N=Nc5c(O)ccc6cc(S(=O)(=O)O)cc(S(=O)(=O)O)c56)c(C)c4)cc3C)cc2)cc1
carcinogen call (Species: RAT, Strain/Sex: F344/FEMALE, Route: ORAL, 150, 300, 600 PPM IN DRINKING WATER 7 D/WK FOR 104 WK (STUDY DURATION: 104 WK), 150, 300, 600 PPM IN DRINKING WATER 7 D/WK FOR 104 WK (STUDY DURATION: 104 WK), Tumor Site: Type of Lesion: CLITORAL GLAND: ADENOMA OR CARCINOMA, LIVER: NEOPLASTIC NODULE OR HEPATOCELLULAR CARCINOMA, LUNG: ALVEOLAR/BRONCHIOLAR A, Tumor Site: Type of Lesion: CLITORAL GLAND: ADENOMA OR CARCINOMA, LIVER: NEOPLASTIC NODULE OR HEPATOCELLULAR CARCINOMA, LUNG: ALVEOLAR/BRONCHIOLAR A): active; positive
carcinogen call (Species: RAT, Strain/Sex: F344/MALE, Route: ORAL, 70, 150, 300 PPM IN DRINKING WATER 7 D/WK FOR 104 WK (STUDY DURATION: 104 WK), 70, 150, 300 PPM IN DRINKING WATER 7 D/WK FOR 104 WK (STUDY DURATION: 104 WK), Tumor Site: Type of Lesion: LIVER: NEOPLASTIC NODULE OR HEPATOCELLULAR CARCINOMA, SKIN: BASAL CELL ADENOMA, BASAL CELL CARCINOMA, KERATOACANTHOMA, S): active; positive

CC/C=C/C=C/C=C/C=C/C=C/OC[C@@H](O)CO
carcinogen call (Species: MOUSE, Strain/Sex: ICR/FEMALE, Route: INTRAPERITONEAL, 2.6 MG/KG IN DMSO ON D 1 AND D 3 THEN 0, 5.2 MG/KG IN DMSO ON D 7, 10, 14 AND (STUDY DURATION: 21 MO), 2.6 MG/KG IN DMSO ON D 1 AND D 3 THEN 0, 5.2 MG/KG IN DMSO ON D 7, 10, 14 AND (STUDY DURATION: 21 MO)): inactive; negative
carcinogen call (Species: MOUSE, Strain/Sex: ICR/MALE, Route: INTRAPERITONEAL, 2.6 MG/KG IN DMSO ON D 1 AND D 3 THEN 0, 5.2 MG/KG IN DMSO ON D 7, 10, 14 AND (STUDY DURATION: 21 MO), 2.6 MG/KG IN DMSO ON D 1 AND D 3 THEN 0, 5.2 MG/KG IN DMSO ON D 7, 10, 14 AND (STUDY DURATION: 21 MO), Tumor Site: Type of Lesion: LIVER: ADENOMA, CARCINOMA, LUNG: ADENOMA, CARCINOMA, GLANDULAR STOMACH: ADENOCARCINOMA, SUBCUTANEOUS TISSUE: FIBROSARCOM, Tumor Site: Type of Lesion: LIVER: ADENOMA, CARCINOMA, LUNG: ADENOMA, CARCINOMA, GLANDULAR STOMACH: ADENOCARCINOMA, SUBCUTANEOUS TISSUE: FIBROSARCOM): active; positive
carcinogen call (Species: RAT, Strain/Sex: F344/MALE, Route: INTRARECTAL, 5, 10 NANOMOLAR IN 0.5 ML T-E BUFFER AND METHANOL SATURATED WITH ARGON 1/WK FOR 85 WK (STUDY DURATION: 28 MO), 5, 10 NANOMOLAR IN 0.5 ML T-E BUFFER AND METHANOL SATURATED WITH ARGON 1/WK FOR 85 WK (STUDY DURATION: 28 MO)): inactive; negative
carcinogen call (Species: RAT, Strain/Sex: F344/MALE, Route: INTRARECTAL, 14 MG/KG IN DMSO: EMULPHOR-SALINE 34WK FOR 9 WK THEN 2/WK FOR 12 WK AND 1/WK FOR 50 WK (STUDY DURATION: 92 WK)): inactive; negative

O=S(=O)(O)OCc1c2ccccc2c2ccc3cccc4ccc1c2c43
carcinogen call (Species: MOUSE, Strain/Sex: B6C3F1/MALE, Route: INTRAPERITONEAL, 0.0025 UMOL/G ONCE AT 12 DAYS OF AGE (STUDY DURATION: 10 MO), Tumor Site: Type of Lesion: LIVER: HEPATOMA): active; positive
carcinogen call (Species: RAT, Strain/Sex: SPRAGUE-DAWLEY/FEMALE, Route: SUBCUTANEOUS, 0.2 UMOL 3/WK FOR 20 DOSES (STUDY DURATION: 52 WK), Tumor Site: Type of Lesion: INJECTION SITE: SARCOMA): active; positive

c1ccc2nc3c(cc2c1)c1c(c2ccccc23)O1
carcinogen call (Species: MOUSE, Strain/Sex: SWISS/FEMALE, Route: INTRAPERITONEAL, 1.05 UMOL GIVEN AS 150 NMOL IN 5 µL DMSO WITHIN 24 HR OF BIRTH, 300 NMOL IN 10 µL DMSO ON D 8 OF LIFE, AND 600 NMOL I, Tumor Site: Type of Lesion: LUNG: ADENOMA): active; positive
carcinogen call (Species: MOUSE, Strain/Sex: SWISS/MALE, Route: INTRAPERITONEAL, 1.05 UMOL GIVEN AS 150 NMOL IN 5 µL DMSO WITHIN 24 HR OF BIRTH, 300 NMOL IN 10 µL DMSO ON D 8 OF LIFE, AND 600 NMOL I): inactive; negative

COc1c(Cl)c(Cl)c(Cl)c(Cl)c1Cl
carcinogen call (Species: MOUSE, Strain/Sex: B6C3F1/FEMALE, Route: GAVAGE, 20, 40 MG/KG IN CORN OIL 5 D/WK FOR 104 WK (STUDY DURATION: 105 WK), 20, 40 MG/KG IN CORN OIL 5 D/WK FOR 104 WK (STUDY DURATION: 105 WK)): inactive; negative
carcinogen call (Species: MOUSE, Strain/Sex: B6C3F1/MALE, Route: GAVAGE, 20, 40 MG/KG IN CORN OIL 5 D/WK FOR 104 WK (STUDY DURATION: 105 WK), 20, 40 MG/KG IN CORN OIL 5 D/WK FOR 104 WK (STUDY DURATION: 105 WK), Tumor Site: Type of Lesion: ADRENAL MEDULLA: BENIGN PHEOCHROMOCYTOMA, LIVER: HEMANGIOSARCOMA): active; positive
carcinogen call (Species: RAT, Strain/Sex: F344/FEMALE, Route: GAVAGE, 20, 40 MG/KG IN CORN OIL 5 D/WK FOR 103 WK (STUDY DURATION: 104 WK), 20, 40 MG/KG IN CORN OIL 5 D/WK FOR 103 WK (STUDY DURATION: 104 WK), Tumor Site: Type of Lesion: ADRENAL MEDULLA: BENIGN PHEOCHROMOCYTOMA): equivocal
carcinogen call (Species: RAT, Strain/Sex: F344/MALE, Route: GAVAGE, 10, 20, 40 MG/KG IN CORN OIL 5 D/WK FOR 103 WK (STUDY DURATION: 104 WK), 10, 20, 40 MG/KG IN CORN OIL 5 D/WK FOR 103 WK (STUDY DURATION: 104 WK), Tumor Site: Type of Lesion: ADRENAL MEDULLA: BENIGN PHEOCHROMOCYTOMA): active; positive

CC1(C)CN=C(NN=C(/C=C/c2ccc(C(F)(F)F)cc2)/C=C/c2ccc(C(F)(F)F)cc2)NC1
carcinogen call (Species: Mouse, Strain/Sex: CD-1/Female (?/Group), Route: Oral, 25, 50, 100, 200 ppm of 92% hydramethylnon in diet for 18 mo, study duration 18 mo, 25, 50, 100, 200 ppm of 92% hydramethylnon in diet for 18 mo, study duration 18 mo): inactive; negative
carcinogen call (Species: Mouse, Strain/Sex: CD-1/Male (?/Group), Route: Oral, 25, 50, 100, 200 ppm of 92% hydramethylnon in diet for 18 mo, study duration 18 mo, 25, 50, 100, 200 ppm of 92% hydramethylnon in diet for 18 mo, study duration 18 mo): inactive; negative
carcinogen call (Species: Rat, Strain/Sex: CD/Female (50/Group), Route: Oral, 25, 50, 100, 200 ppm in diet for 2 yr, study duration 2 yr, 25, 50, 100, 200 ppm in diet for 2 yr, study duration 2 yr): inactive; negative
carcinogen call (Species: Rat, Strain/Sex: CD/Male (50/Group), Route: Oral, 25, 50, 100, 200 ppm in diet for 2 yr, study duration 2 yr, 25, 50, 100, 200 ppm in diet for 2 yr, study duration 2 yr): inactive; negative
